Measurements from US11434246B2, “EP4 antagonists” (Eisai R&D Management Co., Ltd., priority 2015, dated 2022).

Columns and labels:
EP4 [1] = target: T1, EP4 (Homo sapiens, UniProt P35408); test: Competitive Radioligand EP4 Receptor Binding Assay ([3H]-PGE2, Chem-1 cell membranes); design: purchased Millipore; host or cells: Chem-1 cells; conditions: human EP4-overexpressing cell membrane fraction, 12 nM [3H]-PGE2; read-out: Ki of inhibition of radiolabelled PGE2 binding, human EP4
Experimental: (§1) Competitive Radioligand EP4 Receptor Binding Assay: The assay was performed using ChemiScreen recombinant human EP4 receptor membrane preparations from Millipore using Chem-1 cells and mouse EP4 receptor membrane preparations from Genscript using U2OS clone, according to manufacturer's instructions. For human EP4 binding, 10 μg Chem-1 cell membranes overexpressing human EP4 cDNA were mixed with 12 nM [^3H]-PGE2 and 5 μmol/L unlabeled PGE2 or 0.1% DMSO in the presence or absence of various concentrations of testing compounds in binding buffer (50 mM HEPES, pH 7.4, 5 mM MgCl2, 1 mM CaCl2, 0.2% BSA) in a nonbinding 96-well plate, and incubated for 2 h at room temperature. For mouse EP4 binding, 60 μg of U2OS membranes were used in the same condition. Prior to filtration, a GF/C 96-well filter plate was coated with 0.33% polyethyleneimine for 30 min, then washed with 50 mM HEPES, pH 7.4, 0.5% BSA. Binding reactions were transferred to the filter plate, and washed 3 times with assay Wash Buffer (50 mM HEPES, pH7.4, 500 mM NaCl, 0.1% BSA). The plate was dried and radioactivity counted. The data were processed using PRISM software, and IC50 and Ki values were calculated using the same software.

EP4 [2] = target: T1, EP4; test: EP4 Antagonism by CRE-PLAP Reporter Assay (SE302 cells, PGE2-stimulated); type: cell-based; design: HEK293 cells express endogenous EP4; endogenous in cells; host or cells: SE302 (HEK293 clone with CRE-PLAP reporter); conditions: SE302 (HEK293) cells, 3 ng/mL PGE2, overnight; single or multiple assay average values
Outline: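 HEK293-derived SE302 cells with endogenous EP4 and CRE-driven secreted PLAP, in serum-free medium with 0.1% BSA, stimulated overnight with 3 ng/mL PGE2 plus compound. Supernatant PLAP read by luminescence (pH 11 carbonate buffer, 2 h). IC50 from % of control, normalized to DMSO with and without PGE2.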

mouse EP4 receptor = target: T2, mouse EP4 receptor (Mus musculus, UniProt P32240); test: Competitive Radioligand EP4 Receptor Binding Assay ([3H]-PGE2, U2OS membranes); conditions: mouse EP4-overexpressing cell membrane fraction, 12 nM [3H]-PGE2; read-out: Ki of inhibition of radiolabelled PGE2 binding, mouse EP4
T2 construct: purchased Genscript; host or cells: U2OS clone
T2 sequence (P32240 whole entry): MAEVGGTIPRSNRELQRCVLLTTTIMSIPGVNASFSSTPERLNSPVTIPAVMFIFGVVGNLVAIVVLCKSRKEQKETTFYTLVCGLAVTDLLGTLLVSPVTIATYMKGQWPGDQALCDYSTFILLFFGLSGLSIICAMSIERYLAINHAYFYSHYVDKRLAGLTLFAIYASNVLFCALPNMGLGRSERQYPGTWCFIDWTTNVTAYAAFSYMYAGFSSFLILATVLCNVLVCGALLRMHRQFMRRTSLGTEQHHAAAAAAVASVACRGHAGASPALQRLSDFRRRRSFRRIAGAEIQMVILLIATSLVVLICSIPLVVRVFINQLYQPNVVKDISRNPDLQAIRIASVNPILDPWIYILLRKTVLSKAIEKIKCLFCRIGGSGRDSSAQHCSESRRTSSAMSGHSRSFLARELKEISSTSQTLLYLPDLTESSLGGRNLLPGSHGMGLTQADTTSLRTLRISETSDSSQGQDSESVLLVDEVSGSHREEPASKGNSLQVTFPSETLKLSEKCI
Experimental: as §1

4T1 cells = test: In vivo anti-tumor pharmacology, mouse breast 4T1 syngeneic tumor model
Experimental: In vivo Anti-tumor Pharmacology: 4T1 cells were maintained in RPMI 1640 medium supplemented with 10% FBS at 37° C. and 5% CO2 atmosphere. Cell detachment was obtained using standard trypsinization methods, quantification of cell numbers and viability information using the NC-200 automated cell counter. Compound 1 was thoroughly suspended in 0.5% methyl cellulose (MC) by sonication at 4° C. for 15 min before oral administration (p.o.) to animals. BALB/c mice were injected subcutaneously (s.c.) with live 1×10^5 4 T1 cells. Mice developed tumors of approximately 36 mm^3 in 5 days. 4T1 tumor-bearing mice were randomized and mapped into 5 groups of 10 mice each: group A received vehicle (0.5% MC); group B received 0.1 mg/kg of compound 1; group C received 1 mg/kg of compound 1, group D received 25 mg/kg of compound 1; and group E received 150 mg/kg of compound 1. All treatments were give p.o. daily for 21 consecutive days. Tumor volumes and body weights were measured twice weekly. Study was terminated 27 days after tumor cell injection. Tumor volumes were expressed as mean±SEM. Tumor volume differences among treated mouse groups on day 27 were analyzed by the one-way ANOVA followed by Tukey's test. P≤0.05 values were considered significant.

T1 sequence (P35408 whole entry): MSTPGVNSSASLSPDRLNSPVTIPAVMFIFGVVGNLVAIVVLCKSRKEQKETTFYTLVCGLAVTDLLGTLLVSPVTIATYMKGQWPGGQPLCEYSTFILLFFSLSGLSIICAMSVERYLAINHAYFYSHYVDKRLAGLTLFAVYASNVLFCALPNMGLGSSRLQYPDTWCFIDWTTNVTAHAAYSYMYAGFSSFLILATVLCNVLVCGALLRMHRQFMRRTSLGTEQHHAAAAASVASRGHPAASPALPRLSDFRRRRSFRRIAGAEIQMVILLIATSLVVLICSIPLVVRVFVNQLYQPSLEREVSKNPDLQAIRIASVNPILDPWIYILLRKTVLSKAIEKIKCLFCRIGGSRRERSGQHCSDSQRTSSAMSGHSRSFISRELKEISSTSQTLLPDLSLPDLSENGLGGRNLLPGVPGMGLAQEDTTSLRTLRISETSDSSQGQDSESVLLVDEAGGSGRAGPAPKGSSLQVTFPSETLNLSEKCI

C[C@H](NC(=O)c1c(C(F)(F)F)nn2c1N(Cc1cccc(C(F)(F)F)c1)CC2)c1ccc(C(=O)O)cc1 [Compound 1, (S)-4-(1-(6-(trifluoromethyl)-1-(3-(trifluoromethyl)benzyl)-2,3-dihydro-1H-imidazo[1,2-b]pyrazole-7-carboxamido)ethyl)benzoic Acid]
Ki (EP4 [1]): 4.2 nM
IC50 (EP4 [2]): 0.34 nM
Ki (mouse EP4 receptor): 26.3 nM
gross toxicity judged from animal body weight and overall animal behavior (4T1 cells; 0.1-150 mg/kg p.o. daily for 21 days, BALB/c mice): None of the doses tested showed gross toxicity
tumor growth inhibition (4T1 cells; 0.1 and 1.0 mg/kg p.o. daily for 21 days, day 27): some inhibition was observed, but without statistical significance
tumor growth inhibition (4T1 cells; 25 and 150 mg/kg p.o. daily for 21 days, day 27): Statistically significant inhibition of tumor growth
tumor growth inhibition (4T1 cells; 25 and 150 mg/kg p.o. daily for 21 days, day 27, listed as compound 1): significant and comparable anti-tumor activity
tumor growth inhibition (4T1 cells; BALB/c mice, 4T1 s.c. tumors, p.o. daily for 21 days, range 0.1 mg/kg-150 mg/kg): inhibited the tumor growth in a dose-dependent manner
